# Tested on: γ-glutamyl transpeptidase (GGT)
# Assay: Amphotericin B knockdown of SRC/NKA ex vivo GGT (western blot band density, semilogarithmic dose response)
# Format: cell-based, human
# Excerpt: Morphological, genotypic, phenotypic and functional changes to 2D cultured SRC were monitored to 72hrs following exposure to escalating doses of the well known nephrotoxin, Amphotericin B (Amp B). The TC50 was estimated by Amp B knockdown of SRC/NKA ex vivo GGT activity.
# GGT inhibition detected by western blot is shown in below in Table 16.1.
# Results from semilogarithmic dose response analysis are shown below in Table 16.2.
structure (smiles),measurement,setting,value
C[C@@H]1[C@H](O)[C@@H](C)/C=C/C=C/C=C/C=C/C=C/C=C/C=C/[C@H](O[C@@H]2O[C@H](C)[C@@H](O)[C@H](N)[C@@H]2O)C[C@@H]2O[C@](O)(C[C@@H](O)C[C@@H](O)[C@H](O)CC[C@@H](O)C[C@@H](O)CC(=O)O[C@H]1C)C[C@H](O)[C@H]2C(=O)O [Amphotericin B],IC50,"2D cultured SRC, exposure to 72 hrs, sigmoidal fit Log(inhibitor) vs response, read-out: IC50 of inhibitory effect on SRC-mediated GGT",32.3 µM
same,LOGIC50,"Log(inhibitor) vs response fit, 2D cultured SRC",1.510
same,GGT western blot band density (response),[c] 0.01,18764
same,inv response (inverse of band density),[c] 0.01,5.329E−05
same,GGT western blot band density (response),[c] 0.1,18959
same,inv response (inverse of band density),[c] 0.1,5.275E−05
same,GGT western blot band density (response),[c] 1,17112
same,inv response (inverse of band density),[c] 1,5.844E−05
same,GGT western blot band density (response),[c] 10,16611
same,inv response (inverse of band density),[c] 10,6.02E−05
same,GGT western blot band density (response),[c] 100,8227
same,inv response (inverse of band density),[c] 100,0.0001216
same,GGT western blot band density (response),[c] 1000,8000
same,inv response (inverse of band density),[c] 1000,0.000125
same,GGT western blot band density (response),[c] 10000,7800
same,inv response (inverse of band density),[c] 10000,0.0001282

# — patent US20170205398A1, “DRUG SCREENING AND POTENCY ASSAYS” (REGENMED (CAYMAN) LTD., priority 2011, published 2017)
